From US20250340591A1, “COMPOSITION FOR PREVENTING OR TREATING INFLAMMATORY BOWEL DISEASE CONTAINING NOVEL COMPOUND” (ANYGEN CO., LTD., priority 2021, published 2025) come the findings set out here.

Square brackets hold non-standard residues; d marks the D form. Peptide text beside a SMILES is read from it. * marks the point of attachment. His(Trt) = N[C@@H](Cc1cn(C(c2ccccc2)(c2ccccc2)c2ccccc2)cn1)C(=O)O; His(τ-CHPh2) = N[C@@H](Cc1cn(C(c2ccccc2)c2ccccc2)cn1)C(=O)O; Biotin = O=C1N[C@H]2[C@H](CS[C@H]2CCCCC(=O)*)N1; sY = N[C@@H](Cc1ccc(OS(=O)(=O)O)cc1)C(=O)O; Bip = N[C@@H](Cc1ccc(-c2ccccc2)cc1)C(=O)O; Tyr(3-NH2) = Nc1cc(C[C@H](N)C(=O)O)ccc1O; dPhe(4-Cl) = N[C@H](Cc1ccc(Cl)cc1)C(=O)O; dPhe(4-Me) = Cc1ccc(C[C@@H](N)C(=O)O)cc1; Myristoyl = CCCCCCCCCCCCCC(=O)*; Octanoyl = CCCCCCCC(=O)*

The target in the series is T1, GPR39 (Homo sapiens, UniProt O43194).
T1 sequence (O43194 1-453): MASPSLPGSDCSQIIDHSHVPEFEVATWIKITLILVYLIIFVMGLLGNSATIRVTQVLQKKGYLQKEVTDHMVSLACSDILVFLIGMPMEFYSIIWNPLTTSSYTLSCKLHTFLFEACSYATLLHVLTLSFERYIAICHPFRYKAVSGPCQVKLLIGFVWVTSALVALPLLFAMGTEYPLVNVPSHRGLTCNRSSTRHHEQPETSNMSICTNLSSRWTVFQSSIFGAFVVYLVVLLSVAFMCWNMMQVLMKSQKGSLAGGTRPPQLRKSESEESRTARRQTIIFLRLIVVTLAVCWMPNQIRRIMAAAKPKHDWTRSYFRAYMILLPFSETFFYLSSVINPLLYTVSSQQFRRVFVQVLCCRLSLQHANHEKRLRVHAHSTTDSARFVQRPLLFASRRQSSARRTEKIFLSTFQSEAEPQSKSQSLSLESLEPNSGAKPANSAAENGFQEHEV
As to the kind of experiment: luciferase assay system (SRE luciferase reporter gene, CV-1 cells expressing GPR39). The series is classed as cell-based. On the set-up: expressed in transfected cells; host or cells: CV-1 fibroblast cell line (Korea Cell Line Bank), adenoviral transduction at 50 MOI. Background: Reporter assays use an easily measured gene product as a stand-in for the process of interest.

Consider `CCCCCCCC(=O)NCCCC[C@H](NC(=O)[C@@H](N)Cc1cn(C(c2ccccc2)(c2ccccc2)c2ccccc2)cn1)C(=O)N[C@H](Cc1ccc(C)cc1)C(=O)N[C@@H](Cc1ccc(O)cc1)C(=O)O` [HKFY-30, ((R)-2-((S)-2-((S)-2-amino-3-(1-trityl-1H-imidazol-4-yl)propanamido)-6-octanamidohexanamido)-3-(p-tolyl)propanoyl)-L-tyrosine] (H-[His(Trt)]K(Octanoyl)[dPhe(4-Me)]Y-OH), for which the “ECmax (−fold induction over basal)” value is 23.88 ± 3.04 fold induction over basal. In addition, where the note is “comment on Table 3”, the “activity level for GPR39 (in words)” value is recorded as “higher activity level than other HKFY derivatives”. Further, the “activity and ECmax value for GPR39 (in words)” value (comment on Table 3, derivatives composed of d-Phe(methyl)) is “most excellent activity and high ECmax value”.

With `CCCCCCCC(=O)NCCCC[C@H](NC(=O)[C@@H](N)Cc1cn(C(c2ccccc2)c2ccc(O)cc2)cn1)C(=O)N[C@H](Cc1ccc(C)cc1)C(=O)N[C@@H](Cc1ccc(O)cc1)C(=O)O` (stereo partly drawn) [HKFY-65, ((2R)-2-((2S)-2-((2S)-2-amino-3-(1-((4-hydroxyphenyl)(phenyl)methyl)-1H-imidazol-4-yl)propanamido)-6-octanamidohexanamido)-3-(p-tolyl)propanoyl)-L-tyrosine], the “ECmax (−fold induction over basal)” value stood at 18.3 ± 2.2 fold induction over basal. The “activity level for GPR39 (in words)” value (comment on Table 3) was “higher activity level than other HKFY derivatives”.

As for `CCCCCCCC(=O)NCCCC[C@H](NC(=O)[C@H](Cc1cn(C(c2ccccc2)(c2ccccc2)c2ccccc2)cn1)NC(=O)CCCC[C@@H]1SC[C@@H]2NC(=O)N[C@@H]21)C(=O)N[C@@H](Cc1ccc(-c2ccccc2)cc1)C(=O)N[C@@H](Cc1ccc(O)cc1)C(=O)O` [HKFY-45, ((S)-3-([1,1′-biphenyl]-4-yl)-2-((S)-6-octanamido-2-((S)-2-(5-((3aS,4S,6aR)-2-oxohexahydro-1H-thieno[3,4-d]imidazol-4-yl)pentanamido)-3-(1-trityl-1H-imidazol-4-yl)propanamido)hexanamido)propanoyl)-L-tyrosine] (Biotin-[His(Trt)]K(Octanoyl)[Bip]Y-OH), the “ECmax (−fold induction over basal)” value worked out at 21 ± 2.58 fold induction over basal.

Turning to `CCCCCCCC(=O)NCCCC[C@H](NC(=O)[C@@H](N)Cc1cn(CCC(c2ccccc2)c2ccccc2)cn1)C(=O)N[C@@H](Cc1ccccc1)C(=O)N[C@@H](Cc1ccc(O)cc1)C(=O)O` [HKFY-17], the “ECmax (−fold induction over basal)” value amounted to 20 ± 0.57 fold induction over basal.

As for `CCCCCCCC(=O)NCCCC[C@H](NC(=O)[C@@H](N)Cc1cn(CC2c3ccccc3-c3ccccc32)cn1)C(=O)N[C@@H](Cc1ccccc1)C(=O)N[C@@H](Cc1ccc(O)cc1)C(=O)O` [HKFY-18], the “ECmax (−fold induction over basal)” value came to 10 ± 1.48 fold induction over basal.

As for `CCCCCCCCCCCCCC(=O)NCCCC[C@H](NC(=O)[C@@H](N)Cc1cn(C(c2ccccc2)(c2ccccc2)c2ccccc2)cn1)C(=O)N[C@@H](Cc1ccccc1)C(=O)N[C@@H](Cc1ccc(O)cc1)C(=O)O` [HKFY-26, N6-tetradecanoyl-N2-(Nt-trityl-L-histidyl)-L-lysyl-L-phenylalanyl-L-tyrosine] (H-[His(Trt)]K(Myristoyl)FY-OH), the “ECmax (−fold induction over basal)” value is listed as 19.82 ± 0.57 fold induction over basal.

Regarding `CCCCCCCC(=O)NCCCC[C@H](NC(=O)[C@@H](N)Cc1cn(C(c2ccccc2)(c2ccccc2)c2ccccc2)cn1)C(=O)N[C@H](Cc1ccc(Cl)cc1)C(=O)N[C@H](Cc1ccc(O)cc1)C(=O)O` [HKFY-15, ((R)-2-((S)-2-((S)-2-amino-3-(1-trityl-1H-imidazol-4-yl)propanamido)-6-octanamidohexanamido)-3-(4-chlorophenyl)propanoyl)-D-tyrosine] (H-[His(Trt)]K(Octanoyl)[dPhe(4-Cl)][dY]-OH), the “ECmax (−fold induction over basal)” value is listed as 24.7 ± 2.6 fold induction over basal.

As to `CCCCCCCC(=O)NCCCC[C@H](NC(=O)[C@@H](N)Cc1cn(C(c2ccccc2)c2ccc(F)cc2F)cn1)C(=O)N[C@H](Cc1ccc(C)cc1)C(=O)N[C@@H](Cc1ccc(O)cc1)C(=O)O` (stereo partly drawn) [HKFY-32, ((2R)-2-((2S)-2-((2S)-2-amino-3-(1-((2,4-difluorophenyl)(phenyl)methyl)-1H-imidazol-4-yl)propanamido)-6-octanamidohexanamido)-3-(p-tolyl)propanoyl)-L-tyrosine], the “ECmax (−fold induction over basal)” value turned out to be 21.5 ± 2.7 fold induction over basal.

For `CCCCCCCC(=O)NCCCC[C@H](NC(=O)[C@@H](N)Cc1cn(C(c2ccccc2)c2ccccc2)cn1)C(=O)N[C@H](Cc1ccc(C)cc1)C(=O)N[C@@H](Cc1ccc(O)c(N)c1)C(=O)O` [HKFY-70, (S)-2-((R)-2-((S)-2-((S)-2-amino-3-(1-benzhydryl-1H-imidazol-4-yl)propanamido)-6-octanamidohexanamido)-3-(p-tolyl)propanamido)-3-(3-amino-4-hydroxyphenyl)propanoic acid] (H-[His(τ-CHPh2)]K(Octanoyl)[dPhe(4-Me)][Tyr(3-NH2)]-OH), the “ECmax (−fold induction over basal)” value was 10.1 ± 1.6 fold induction over basal.

On to `CCCCCCCC(=O)NCCCC[C@H](N)C(=O)N[C@@H](Cc1cn(C(c2ccccc2)(c2ccccc2)c2ccccc2)cn1)C(=O)N[C@@H](Cc1ccccc1)C(=O)N[C@@H](Cc1ccc(O)cc1)C(=O)O` [HKFY-55, Na-(N6-octanoyl-L-lysyl)-Nt-trityl-L-histidyl-L-phenylalanyl-L-tyrosine] (H-K(Octanoyl)[His(Trt)]FY-OH), for which the “ECmax (−fold induction over basal)” value is reported as 16.8 ± 2.5 fold induction over basal.

In the case of `CCCCCCCC(=O)NCCCC[C@H](NC(=O)[C@@H](N)Cc1cn(C(c2ccccc2)(c2ccccc2)c2ccc(C)cc2)cn1)C(=O)N[C@@H](Cc1ccccc1)C(=O)N[C@@H](Cc1ccc(O)cc1)C(=O)O` [HKFY-5, N2-(Nt-(diphenyl(p-tolyl)methyl)-L-histidyl)-N6-octanoyl-L-lysyl-L-phenylalanyl-L-tyrosine], the “ECmax (−fold induction over basal)” value amounted to 16 ± 1.7 fold induction over basal.

Regarding `CCCCCCCC(=O)NCCCC[C@H](NC(=O)[C@@H](N)Cc1cn(Cc2ccc(-c3ccccc3-c3nnn[nH]3)cc2)cn1)C(=O)N[C@H](Cc1ccc(C)cc1)C(=O)N[C@@H](Cc1ccc(O)cc1)C(=O)O` [HKFY-77, ((R)-2-((S)-2-((S)-3-(1-((2′-(1H-tetrazol-5-yl)-[1,1′-biphenyl]-4-yl)methyl)-1H-imidazol-4-yl)-2-aminopropanamido)-6-octanamidohexanamido)-3-(p-tolyl)propanoyl)-L-tyrosine], the “ECmax (−fold induction over basal)” value is recorded as 11.6 ± 2.14 fold induction over basal.

On to `CCCCCCCC(=O)NCCCC[C@H](NC(=O)[C@@H](N)Cc1cn(C(c2ccccc2)c2ccccc2)cn1)C(=O)N[C@H](Cc1ccc(C)cc1)C(=O)N[C@@H](Cc1ccc(OS(=O)(=O)O)cc1)C(=O)O` [HKFY-35, (S)-2-((R)-2-((S)-2-((S)-2-amino-3-(1-benzhydryl-1H-imidazol-4-yl)propanamido)-6-octanamidohexanamido)-3-(p-tolyl)propanamido)-3-(4-(sulfooxy)phenyl)propanoic acid] (H-[His(τ-CHPh2)]K(Octanoyl)[dPhe(4-Me)][sY]-OH), for which the “ECmax (−fold induction over basal)” value came out at 18.9 ± 0.41 fold induction over basal.

Regarding `CCCCCCCC(=O)NCCCC[C@H](NC(=O)[C@@H](N)Cc1c[nH]c(-c2ccc(C(C)(C)C)cc2)n1)C(=O)N[C@H](Cc1ccc(C)cc1)C(=O)N[C@@H](Cc1ccc(O)cc1)C(=O)O` [HKFY-60, ((R)-2-((S)-2-((S)-2-amino-3-(2-(4-(tert-butyl)phenyl)-1H-imidazol-4-yl)propanamido)-6-octanamidohexanamido)-3-(p-tolyl)propanoyl)-L-tyrosine], the “ECmax (−fold induction over basal)” value was determined as 28.2 ± 2.5 fold induction over basal.
